Source: BindingDB's records for doi:10.7270/Q2N301S8 (D3R/Abbott, 2020)

target: Beta-secretase 1 (Homo sapiens, UniProt P56817); assay: D3R2027
Text: D3R2027

Beta-secretase 1, sequence (P56817 whole entry): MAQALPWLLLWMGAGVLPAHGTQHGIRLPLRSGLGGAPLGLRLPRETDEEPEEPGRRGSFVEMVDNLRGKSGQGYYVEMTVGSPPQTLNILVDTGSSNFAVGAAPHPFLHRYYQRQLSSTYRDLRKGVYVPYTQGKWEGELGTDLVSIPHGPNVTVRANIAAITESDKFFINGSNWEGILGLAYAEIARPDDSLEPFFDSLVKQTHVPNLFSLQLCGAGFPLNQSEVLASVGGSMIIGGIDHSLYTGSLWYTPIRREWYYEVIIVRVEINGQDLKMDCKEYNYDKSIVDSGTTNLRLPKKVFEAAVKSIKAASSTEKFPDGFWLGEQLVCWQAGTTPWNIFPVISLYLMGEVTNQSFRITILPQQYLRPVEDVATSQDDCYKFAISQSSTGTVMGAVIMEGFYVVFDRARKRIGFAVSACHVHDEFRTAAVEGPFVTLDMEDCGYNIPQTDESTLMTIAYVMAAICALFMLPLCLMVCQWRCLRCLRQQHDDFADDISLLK

SMILES	IC50
COCc1cc2cc(c1)C(=O)N[C@H]([C@H](O)CNCCc1ccncc1)C[C@H](C)CCCCCCCN2 [BACE_65]	1700 nM
COCc1cc2cc(c1)C(=O)N[C@H]([C@H](O)CNCc1cc(CC(C)(C)C)on1)Cc1cccc(c1)OCCCCN2 [BACE_129]	14 nM
COc1ccc2cc1OCCCCNc1cc(CO)cc(c1)C(=O)N[C@H]([C@H](O)CNCc1cccc(C(C)C)c1)C2 [BACE_130]	960 nM
C[C@@H]1CCCCCCCOc2cccc(c2)C(=O)N[C@H]([C@H](O)CN[C@@H](C)c2cc(CC(C)(C)C)on2)C1 [BACE_79]	300 nM
COCc1cc2cc(c1)C(=O)N[C@H]([C@H](O)[C@H]1CO[C@@H](COC)CN1)Cc1cccc(c1)OCCCCN2 [BACE_13]	8300 nM
C[C@@H]1CCCCCCCCC(=O)N(C)[C@@H](C)C(=O)N[C@H]([C@H](O)CN[C@@H](C)c2cc(CC(C)(C)C)on2)C1 [BACE_30]	1 nM
C[C@@H]1CCCCCCCCC(=O)N(C)[C@@H](C)C(=O)N[C@H]([C@H](O)CNC(C)(C)c2cc(CC(C)(C)C)on2)C1 [BACE_27]	5.8 nM
CCCCNC(=O)[C@H](C)C[C@H](O)[C@@H]1Cc2ccc(O)c(c2)Cc2ccccc2OCC(=O)N[C@@H](C)C(=O)N1 [BACE_157]	120 nM
CC(C)(NC[C@@H](O)[C@@H]1Cc2cccc(c2)OCCCCOc2cncc(c2)C(=O)N1)c1cccc(Br)c1 [BACE_138]	290 nM
COC(=O)c1cc2cc(c1)C(=O)N[C@H]([C@H](O)CNCc1cccc(C(C)C)c1)Cc1cccc(c1)CCCCO2 [BACE_134]	180 nM
Cc1cc2cc(n1)NCCCCc1cccc(c1)C[C@@H]([C@H](O)CNCc1cc(C(C)(C)C)ccn1)NC2=O [BACE_97]	3 nM
COCc1cc2cc(c1)C(=O)N[C@H]([C@H](O)CNC(C)(C)c1cc(CC(C)(C)C)on1)Cc1cccc(c1)OCCCCN2 [BACE_117]	6.5 nM
C[C@@H]1CCCCCCCOc2cccc(c2)C(=O)N[C@H]([C@H](O)CNCc2cncc(CC(C)(C)C)c2)C1 [BACE_78]	880 nM
CC(=O)N1CCCCOc2cccc(c2)C[C@@H]([C@H](O)CNCc2cc(C(C)C)ccn2)NC(=O)c2cc(C)nc1c2 [BACE_101]	5500 nM
CC(C)c1cccc(C(C)(C)NC[C@@H](O)[C@@H]2Cc3cccc(c3)OCCCCNc3cncc(c3)C(=O)N2)c1 [BACE_114]	57 nM
COCc1cc2cc(c1)C(=O)N[C@H]([C@H](O)CN[C@H]1CC(C)(C)Oc3ccc(C(C)C)cc31)C[C@H](C)CCCCCCCN2 [BACE_63]	1 nM
Cc1cc2cc(n1)NN(C(=O)c1ccc(F)cc1)CCCCCC[C@@H](C)C[C@@H]([C@H](O)CNCc1cccc(C(C)C)c1)NC2=O [BACE_50]	46 nM
CCCCNC(=O)[C@H](C)C[C@H](O)[C@@H]1Cc2cccc(c2)CCCCCNc2cc(cc(OC)n2)C(=O)N1 [BACE_154]	130 nM
C/C1=C\CCCCCCNc2cc(cc(C)n2)C(=O)N[C@H]([C@H](O)CNCc2cccc(C(C)C)c2)C1 [BACE_45]	7.3 nM
Cc1cc2cc(n1)NC/C=C\COc1cc(ccc1F)C[C@@H]([C@H](O)CNC1(c3cccc(C(C)(C)C)c3)CC1)NC2=O [BACE_102]	100 nM
CC(C)c1cccc(CNC[C@@H](O)[C@@H]2C[C@H](C)CCCCCCCOc3cc(cc(Cl)n3)C(=O)N2)c1 [BACE_51]	29 nM
CCCCNC(=O)[C@H](C)C[C@H](O)[C@@H]1C[C@H](C)CCCCCN(CC)C(=O)c2cc(OCC)cc(c2)C(=O)N1 [BACE_1]	16 nM

SMILES	IC50
C[C@@H]1CCCCCCCCC(=O)N(C)[C@@H](C)C(=O)N[C@H]([C@H](O)CN[C@@H](C)c2cccc(Br)c2)C1 [BACE_22]	55 nM
C[C@@H]1CCCCCCOCC(=O)N(C)[C@@H](C)C(=O)N[C@H]([C@H](O)CNCc2cncc(Br)c2)C1 [BACE_35]	510 nM
C[C@@H]1CC/C=C/CCCNc2cc(CO)cc(c2)C(=O)N[C@H]([C@H](O)CNCc2cc(CC(C)(C)C)on2)C1 [BACE_67]	210 nM
Cc1cc2cc(n1)N(C)CCCCCC[C@@H](C)C[C@@H]([C@H](O)CNCc1cccc(C(C)C)c1)NC2=O [BACE_44]	2100 nM
CCCCNC(=O)[C@H](C)C[C@H](O)[C@H](Cc1ccccc1)NC(=O)c1cc(NCCCC)nc(OC)c1 [BACE_20]	770 nM
CCCCNC(=O)[C@H](C)C[C@H](O)[C@@H]1C[C@H](C)CCCCCCC[C@H](NC(=O)c2ccncc2)C(=O)N[C@@H](C)C(=O)N1 [BACE_150]	0.5 nM
COCc1cc2cc(c1)C(=O)N[C@H]([C@H](O)CNCc1cccc(C(C)C)c1)C[C@H](C)CCCCCCCN2 [BACE_9]	93 nM
COc1cc2cc(n1)NCCCCc1cccc(c1)C[C@@H]([C@H](O)CNCc1cccc(C(C)C)c1)NC2=O [BACE_12]	7.8 nM
CCCCNC(=O)[C@H](C)C[C@H](O)[C@@H]1C[C@H](C)CCc2cccc(c2)CS(=O)(=O)C[C@@H](C)C(=O)N1 [BACE_19]	260 nM
Cc1cc2cc(n1)OCCCCOc1cccc(c1)C[C@@H]([C@H](O)CN[C@H]1CC(C)(C)Oc3ccc(C(C)C)cc31)NC2=O [BACE_111]	3 nM
CCCCNC(=O)[C@H](C)C[C@H](O)[C@@H]1C[C@H](C)CCCCCCC[C@H](NC(=O)OC(C)(C)C)C(=O)N[C@@H](C)C(=O)N1 [BACE_149]	3 nM
C[C@@H]1CCCCCCCOc2cc(cc(C(=O)N(C)C)c2)C(=O)N[C@H]([C@H](O)CNC2(c3cc(C(C)(C)C)ccn3)CC2)C1 [BACE_83]	6 nM
CC(C)c1cccc(CNC[C@@H](O)[C@@H]2C[C@H](C)CCCCCCCN(S(C)(=O)=O)c3cc(cc(N(C)S(C)(=O)=O)c3)C(=O)N2)c1 [BACE_69]	1900 nM
CC(C)c1cccc(CNC[C@@H](O)[C@@H]2Cc3cccc(c3)OCCCCO[C@H]3CCN(CC(=O)N2)C3=O)c1 [BACE_89]	260 nM
CC(C)c1cccc(CNC[C@@H](O)[C@@H]2C[C@H](C)CCCCCOCC(=O)N(C)[C@@H](C)C(=O)N2)c1 [BACE_34]	1000 nM
CCCCNC(=O)[C@H](C)C[C@H](O)[C@@H]1Cc2cccc(c2)OCCCCS(=O)(=O)C[C@@H](C)C(=O)N1 [BACE_156]	110 nM
CC(C)c1cccc(CNC[C@@H](O)[C@@H]2C[C@H](C)C/C=C\CCCCNc3cc(cc(Cl)n3)C(=O)N2)c1 [BACE_46]	9.5 nM
C[C@@H]1CS(=O)(=O)CCCCOc2cccc(c2)C[C@@H]([C@H](O)CNC2(c3cccc(Br)c3)CC2)NC1=O [BACE_95]	68 nM
CCOc1ccc(C(F)(F)F)c(CNC[C@@H](O)[C@@H]2C[C@H](C)CCCCCCCCC(=O)N(C)[C@@H](C)C(=O)N2)c1 [BACE_24]	53 nM
CC(C)c1cccc(CNC[C@@H](O)[C@@H]2C[C@H](C)CCCCCCCOc3cc(cc(-c4ncco4)c3)C(=O)N2)c1 [BACE_80]	68 nM
COCc1cc2cc(c1)C(=O)N[C@H]([C@H](O)CNCc1cc(C(F)(F)F)ccc1F)C[C@H](C)CCOCCCCN2 [BACE_76]	5600 nM
C[C@H](NC[C@@H](O)[C@@H]1Cc2cccc(c2)OCCCCOc2cncc(c2)C(=O)N1)c1cc(CC(C)(C)C)on1 [BACE_125]	6 nM

SMILES	IC50
CC(=O)COc1cc2cc(c1)C(=O)N[C@H]([C@H](O)CNC1(c3cc(C(C)(C)C)ccn3)CC1)Cc1cccc(c1)CCCCO2 [BACE_133]	2 nM
C[C@@H]1CCCCCCCCC(=O)N(C)[C@@H](C)C(=O)N[C@H]([C@H](O)CNC(C)(C)c2cccc(Br)c2)C1 [BACE_28]	230 nM
CCN1CCCCC[C@@H](C)C[C@@H]([C@H](O)CNCc2cccc(C(C)C)c2)NC(=O)c2cc(cc(-c3ncco3)c2)C1=O [BACE_40]	3.5 nM
C[C@@H]1CCCCCCOCC(=O)N(C)[C@@H](C)C(=O)N[C@H]([C@H](O)CNC2(c3cccc(C(C)(C)C)c3)CC2)C1 [BACE_4]	7.5 nM
COCc1cc2cc(c1)C(=O)N[C@H]([C@H](O)CNCc1ccc3c(c1)OCCCO3)C[C@H](C)CCCCCCCN2 [BACE_62]	3400 nM
CC(C)c1cccc(CNC[C@@H](O)[C@@H]2C[C@H](C)CCOCCCCNc3cc(cc(Cl)n3)C(=O)N2)c1 [BACE_8]	31 nM
CC(=O)COc1cc2cc(c1)C(=O)N[C@H]([C@H](O)CNCc1cc(C(C)(C)C)ccn1)Cc1cccc(c1)CCCCO2 [BACE_135]	10 nM
COc1ccc2cc1OCCCCNc1cc(cc(Cl)n1)C(=O)N[C@H]([C@H](O)CNCc1cccc(C(C)C)c1)C2 [BACE_100]	39 nM
C[C@@H]1CCCCCCCCS(=O)(=O)C[C@@H](C)C(=O)N[C@H]([C@H](O)CN[C@@H](C)c2cc(CC(C)(C)C)on2)C1 [BACE_39]	21 nM
Cc1cc2cc(n1)OCCCCc1cc(cc(Cl)c1O)C[C@@H]([C@H](O)CNC(C)(C)c1cccc(C(C)C)c1)NC2=O [BACE_107]	47 nM
CC(C)(C)c1ccnc(CNC[C@@H](O)[C@@H]2Cc3cccc(c3)OC/C=C\CNc3cc(cc(Cl)n3)C(=O)N2)c1 [BACE_103]	89 nM
CCCCNC(=O)[C@H](C)C[C@H](O)[C@@H]1C[C@H](C)CCCCCCCCS(=O)(=O)C[C@@H](C)C(=O)N1 [BACE_151]	560 nM
CCCc1cc(CNC[C@@H](O)[C@@H]2C[C@H](C)CCCCCCOCC(=O)N(C)[C@@H](C)C(=O)N2)n[nH]1 [BACE_5]	400 nM
CC(C)c1cccc(CNC[C@@H](O)[C@@H]2Cc3cccc(c3)OCCCCCC(=O)N(C)[C@@H](C)C(=O)N2)c1 [BACE_11]	32 nM
CC(C)Cc1cncc(C(C)(C)NC[C@@H](O)[C@@H]2C[C@H](C)CCCCCCCCC(=O)N(C)[C@@H](C)C(=O)N2)c1 [BACE_26]	270 nM
CCCc1cc(CNC[C@@H](O)[C@@H]2C[C@H](C)CCCCCCCNc3cc(COC)cc(c3)C(=O)N2)no1 [BACE_64]	570 nM
C/C1=C\[C@@H]([C@H](O)CNCc2cccc(C(C)C)c2)NC(=O)c2cc(Cl)nc(c2)NCCCCOCC1 [BACE_49]	470 nM
C[C@@H]1CC(=O)NCCCCOc2cccc(c2)C[C@@H]([C@H](O)CNC2(c3cccc(C(C)(C)C)c3)CCCCC2)NC1=O [BACE_93]	10 nM
Cc1cc2cc(n1)OCc1ccccc1COc1cccc(c1)C[C@@H]([C@H](O)CNC1(c3cccc(C(C)C)c3)CC1)NC2=O [BACE_112]	1400 nM
CCCNc1cc(COC)cc(C(=O)N[C@@H](Cc2cccc(OC)c2)[C@H](O)CNC2(c3cccc(C(C)C)c3)CC2)c1 [BACE_145]	1200 nM
C[C@@H]1CCOCCCCNc2cc(ccc2Cl)C(=O)N[C@H]([C@H](O)CNCc2cc(C(C)(C)C)ccn2)C1 [BACE_74]	150 nM
